From US6426435B1, “Substantive water-soluble bis-quaternary salts of cinnamidoalkylamines” (Galaxy Surfactants Ltd., priority 2000, dated 2002) come the findings set out here.

Molecules are shown by their SMILES. Read-outs that look alike come from different tables or passages of the source. Where only a bound is given, the exact number is not on record here.

Series [1] can be described thus: UV absorption: molar extinction coefficient. The series is classed as physicochemical. The protocol:
Ethyl p-methoxy cinnamate (206.0 g, 1.0 mole), […] (306.0 g, 3.0 mole) and sodium methoxide (2.0 g) were charged in a pressure reactor. The air inside the reactor was flushed out by purging of nitrogen. The reaction mixture was then stirred at 180° C. (this generated pressure of 18 kg/cm^2) for 36 hours. The progress of reaction was monitored by disappearance of ethyl p-methoxy cinnamate on chromatography (TLC and HPLC). The TLC was performed on aluminium coated silica gel plates (Merck-60-F-254) and viewed with a UV lamp at 254 nm. HPLC was performed using reversed phase technique on a C-18 bonded (octadecyl silane) column and 60% aqueous methanol as mobile phase (1.0 ml/min) and detection at 280 nm. The excess amine was removed under vacuum.

The procedure of series [2]:
Virgin hair (5.0 g) were washed with 10% SLES solution and rinsed with plain water. The tresses were treated for exactly 5.0 minutes with clear shampoo (containing 2% β,β′-di (p-methoxy cinnamidopropyldimethylammonium chloride) ethyl ether) as described in Example I that was diluted five times with water. After the treatment the tresses were washed thoroughly with copious amount of water. The adsorbed quaternary was extracted from the hair surface by immersing each tress in isopropanol at 65° C. for 30 minutes. A known volume of this isopropanol/quaternary ammonium salt mixture was analysed by UV-spectroscopy to determine its absorption intensity.

The procedure of series [3]: The major ingredients were mixed with heating to 50° C. until a uniform homogenous mixture was formed. The resulting mixture was then cooled to room temperature with continuous stirring. The required chelating agent, colour, perfume were added. The viscosity was adjusted to 2500 cps with sodium chloride.
The substantivity experiment was performed as described under;
All ingredients were heated together under stirring to 70° C. till the reaction mass became homogenous and transparent. The reaction mass was cooled to 40° C. and the required amounts of chelating agents, perfume and colour were added. The molten mass was cast in moulds of desired shape to yield transparent bathing bar.
This is another data set of the same source.

For series [4] the following is noted: solid after removal of water.
Method: For purposes of the present application, water-soluble compounds are defined as being soluble in water at levels above 15% w/w.
p-Methoxy cinnamidopropyldimethylamine (263.0 g, 1.0 mole) and bis-(2-dichloroethyl)ether (71.5 g, 0.5 mole) and deionised water (334.5 ml) were charged in a pressure reactor. The air inside was flushed out by purging nitrogen. The reaction mixture was then stirred at 115° C. (pressure 3 kg/cm^2) for 36 hours. The progress of the reaction was followed by analysing the chloride content.

For `COc1ccc(C=CC(=O)NCCCN(C)C)cc1` [p-Methoxy Cinnamidopropyldimethylamine], the “molar extinction coefficient, ε” value in series [1] (in methanol, at 290 nm, in M-1·cm-1 (unit assumed)) is 24,224.

Regarding `COc1ccc(C=CC(=O)NCCC[N+](C)(C)CCOCC[N+](C)(C)CCCNC(=O)C=Cc2ccc(OC)cc2)cc1.[Cl-].[Cl-]` [β,β′-di(p-Methoxy Cinnamidopropyldimethylammonium Chloride) Ethyl Ether], the substantivity was 22 mg/100 g of hair in series [2] (clear shampoo of Example III containing 2% compound, diluted five times with water, 5.0 minutes treatment) and 20 mg /100 g of hair in series [2] (transparent bathing bar of Example V (2.0% compound), procedure of Example III). Also, the “deposition of quaternary on cotton fabric (substantivity)” value in series [2] (detergent powder of Example VII (2.0% compound)) was 21 mg/100 g of cotton fabric. Further, the “compatibility with anionic surfactant” value is reported as “total compatibility” in series [3] (transparent bathing bar of Example V, transparency unaffected) and “completely compatible” in series [3] (transparent shampoo of Example III (SLES-2)). Also, in series [4], the water solubility was more than 50%. The results for the “molar extinction coefficient, ε” value in series [1] and in series [1] (in aqueous solution at 292 nm λmax) were 42,000 and 42,729, respectively.
